For the experiment, the target named is T1, protein phosphatase-1 catalytic subunit (PP1c) (Oryctolagus cuniculus, UniProt P62139).
T1 construct: gene PPP1CA; catalytic subunit
The experiment is described as follows: colorimetric pNPP phosphatase inhibition assay, absorbance at […] nm, PP1 […]. Format: biochemical.

pIC50: −log10 of the molar value.

T1 sequence (P62139 2-330): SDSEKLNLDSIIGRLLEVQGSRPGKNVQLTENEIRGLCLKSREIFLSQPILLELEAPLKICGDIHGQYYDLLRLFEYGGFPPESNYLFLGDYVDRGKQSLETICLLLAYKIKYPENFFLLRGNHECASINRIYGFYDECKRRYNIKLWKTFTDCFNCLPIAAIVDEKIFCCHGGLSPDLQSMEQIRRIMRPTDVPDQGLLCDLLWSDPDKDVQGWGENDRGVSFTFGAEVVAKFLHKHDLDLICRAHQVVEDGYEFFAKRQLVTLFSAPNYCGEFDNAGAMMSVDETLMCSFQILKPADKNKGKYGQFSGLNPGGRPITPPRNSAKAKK

Regarding `C=C1[C@@H](O)[C@@H]2O[C@]3(CC[C@H](/C=C/[C@@H](C)[C@@H]4CC(C)=C[C@@]5(O[C@H](C[C@@](C)(O)C(=O)O)CC[C@H]5O)O4)O3)CC[C@H]2O[C@@H]1[C@@H](O)C[C@H](C)[C@H]1O[C@@]2(CCCCO2)CC[C@H]1C` [OA, okadaic acid], the pIC50 (usually −log10 of the IC50, conventionally taken in molar units) was 5.93.

For the origin of these results see PMC7298613, “Degradation of okadaic acid in seawater by UV/TiO2 photocatalysis – Proof of concept” (The Science of the Total Environment, 2020).
